Marks after values point to notes of the source that are not given here.
Key:
human keratinocytes [1] = assay: Mitochondrial fragmentation in keratinocytes, UV Study (Example 2), TPEF imaging of NADH, PSD exponent β; assay type: cell-based; details: B3 10 mM, AceMet 500 uM, MeNAM 10 mM alone or 500 uM with B3; for Effect on UV-induced mitochondrial fragmentation in words: UV-exposed; for Mitochondrial Fragmentation (−) UV (3 days) / Mitochondrial Fragmentation (+) UV (4 days): keratinocytes; for Mitochondrial Fragmentation (−) UV (3 days): 3 days before UV exposure, control 1.30; for Mitochondrial Fragmentation (+) UV (4 days): 4 days after UV exposure (4 J/cm^2 UVA+UVB, 14 min daily), UV control 1.58
Description: Test compounds (B3, AceMet and MeNAM) were purchased from Sigma (St. Louis, Mo.). Cell culture growth media (Epilife media with calcium (Cat #MEPI500CA) and Epilife media supplement HKGS 100X (Cat #S-001-5)) was purchased from Thermofisher (Waltham, Mass.). Cryopreserved human keratinocytes cells (˜1×10^6 cells) were plated on 12-well glass bottom plates at a confluence of ˜15%. The cells were suspended in primary keratinocyte growth media (Epilife media with calcium) and incubated @ 37° C. for 1d (Day 0). At Day 1, cells began treatment with supplemented primary keratinocyte growth media (Epilife media with calcium supplemented with HKGS 100X; 25 ml total) without test compound (Control sample) or containing test compounds B3 (10 mM), MeNAM (10 mM), AceMet (500 uM), B3 (10 mM)+AceMet (500 uM) or B3 (10 mM)+MeNAM (500 uM). Cell treatment (25 ml media with or without test compounds as above) continued daily for 4 additional days (Non-UV Study—Example 1) or 2 additional days (UV Study—Example 2). For the UV Study, cells were subjected to UV treatment on Day 4 by replacing media with PBS, exposing cells to UV light (4 J/cm^2 of UVA+UVB) for 14 min and feeding cells with media with or without corresponding test compounds as defined above. UV treatments continued daily for 3 additional days (Days 5, 6 and 7). Image acquisition and analysis on all cell wells to assess mitochondrial fragmentation was conducted on Day 1, 3, 5 and 8.
(§1) For two-photon excited fluorescence (TPEF) imaging, cell cultures were placed in microscope-compatible micro-incubator system, which maintained 37° C. within a humidified environment throughout the imaging session.
HEPES buffering agent (Sigma) was added to cell cultures in primary keratinocyte growth medium before imaging, which maintained the pH of cell cultures throughout the imaging session. Images were obtained using a Leica TCS SP8 confocal microscope equipped with a tunable (680-1300 nm) titanium-sapphire laser (InSight Deep See; Spectra Physics; Mountain View, Calif.). Images (1024×1024 pixels; 386×386 μm) were acquired using water-immersion 25×objective (NA 0.95; 2.4 mm working distance), with simultaneous collection by two non-descanned photomultiplier tube (PMT) detectors using a filter cube containing filters from Chroma (Bellows Falls, Vt.), including a 700 nm short pass filter (ET700SP-2P) and a 495 nm dichroic mirror (495DCXR). To isolate NADH fluorescence, a 460(±20) nm emission filter (Chroma, ET460/40M-2P), corresponding to the NADH emission peak, was placed before one of the non-descanned detectors. NADH fluorescence images were acquired from this 460 nm channel using 755 nm excitation. FAD fluorescence was isolated using a 525(±25) nm emission filter (Chroma, ET525/50M-2P) for the other non-descanned detector and 860 nm excitation. The two-photon action cross section of NADH decreases by several orders of magnitude between 755 nm and 860 nm excitation, enabling an efficient isolation of FAD at longer wavelengths. The fluorescence lifetime images (512×512 pixels; 386×386 μm) corresponding to NADH were acquired under the same excitation and emission settings, using SymPho software. PMT gain was adjusted for each image to maximize contrast while preventing a saturated pixel intensity value. The PMT gain and laser power were recorded for each image and used to normalize fluorescence intensity.
To assess mitochondrial fragmentation, a previously established Fourier transform technique was used to obtain power spectral density (PSD) curves from each image. […]

human keratinocytes [2] = assay: Mitochondrial fragmentation in keratinocytes (Non-UV Study, Example 1), TPEF imaging of NADH, PSD exponent β; assay type: cell-based; details: no UV, B3 10 mM
Description: Test compounds (B3, AceMet and MeNAM) were purchased from Sigma (St. Louis, Mo.). Cell culture growth media (Epilife media with calcium (Cat #MEPI500CA) and Epilife media supplement HKGS 100X (Cat #S-001-5)) was purchased from Thermofisher (Waltham, Mass.). Cryopreserved human keratinocytes cells (˜1×10^6 cells) were plated on 12-well glass bottom plates at a confluence of ˜15%. The cells were suspended in primary keratinocyte growth media (Epilife media with calcium) and incubated @ 37° C. for 1d (Day 0). […]
as §1
HEPES buffering agent (Sigma) was added to cell cultures in primary keratinocyte growth medium before imaging, which maintained the pH of cell cultures throughout the imaging session. […] To isolate NADH fluorescence, a 460(±20) nm emission filter (Chroma, ET460/40M-2P), corresponding to the NADH emission peak, was placed before one of the non-descanned detectors. NADH fluorescence images were acquired from this 460 nm channel using 755 nm excitation. FAD fluorescence was isolated using a 525(±25) nm emission filter (Chroma, ET525/50M-2P) for the other non-descanned detector and 860 nm excitation. […]

SMILES	Effect on mitochondrial fragmentation in words, Non UV-exposed keratinocytes (human keratinocytes [1])	Effect on UV-induced mitochondrial fragmentation in words (human keratinocytes [1])	Mitochondrial Fragmentation (−) UV (3 days) (human keratinocytes [1])	Mitochondrial Fragmentation (+) UV (4 days) (human keratinocytes [1])	Mitochondrial Fragmentation (human keratinocytes [2]; keratinocytes after 5 days exposure, AceMet 500 uM, MeNAM 500 uM, higher value = less protection, control 1.88)	Effect on mitochondrial fragmentation in words (human keratinocytes [2]; keratinocytes, 5 days, AceMet or MeNAM 500 uM)
C[n+]1cccc(C(N)=O)c1 [MeNAM, 1-methylnicotinamide chloride]	significantly reduces mitochondrial fragmentation	effective at reducing this UV-induced effect down to control levels	1.15^a	1.29^a,d	–	–
NC(=O)c1cccnc1 [B3, Nicotinamide]	does not significantly reduce mitochondrial fragmentation	effective at reducing this UV-induced effect down to control levels	1.18	1.34 ^d	1.67 ^a	decreases mitochondrial fragmentation
CSCC[C@H](NC(C)=O)C(=O)O [AceMet, N-acetylmethionine]	does not significantly reduce mitochondrial fragmentation	increases mitochondrial fragmentation beyond UV-exposed levels	1.47^c,e	1.76^c,e,h	–	–

— US20220362127A1, “BIOENERGETIC COMBINATIONS AND METHODS OF USING SAME” (Conopco, Inc., d/b/a UNILEVER, priority 2019, published 2022)
